# Source: publication PMC8710297, “Identification of potent SENP1 inhibitors that inactivate SENP1/JAK2/STAT signaling pathway and overcome platinum drug resistance in ovarian cancer” (Clinical and Translational Medicine, 2021)
# System: STAT3
# Assay: pSTAT3 levels in IGROV1 CR cells (immunoblotting)
# Type: cell-based
# Details: Homo sapiens, IGROV-1, 48 h, read-out: IC50 (pSTAT3 levels, Figure 3C)
# Procedure: FIGURE 3 Identification of UAMMC9 from UA derivatives. (A) Synthesis of UA derivatives. Reagents and conditions: (i) Ac2O, DMAP, Pyridine, r.t.; (ii) Oxalyl chloride, CH2Cl2, r.t., overnight; (iii) amines, TEA, r.t., 0.5–4 h; (iv) NaOH a.q., MeOH/THF, r.t.; (v) amines, MeOH, reflux; (vi) K2CO3, DMF, 60°C. The detail of synthesis was included in supplemental materials. (B) UAMMC9 inhibits Sentrin‐specific protease 1 (SENP1) activity in cells. (C) IGROV1 CR cells treated with indicated UAMMC9 for 48 h. Cells were then harvested and lysates were resolved on sodium dodecyl sulphate‐polyacrylamide gel electrophoresis, followed by immunoblotting for indicated proteins. (D) Cellular thermal shift assay to examine the interaction of UAMMC9 with SENP1. IGROV1 CR cells were incubated with DMSO or UAMMC9 for 4 h before treatment as in Figure 2A. (E) In vitro thermal shift assay to analyze the interactions of UAMMC9 with purified GST‐SENP1(C603A). Stability of SENP1(C603A) was analyzed by using Western blot against SENP1 antibody. […]
# Figue S2. […] (B) Quantification of SENP1 in h ib iti o n by UAMMC9 in vitro and in vivo shown in A and Figure 3B . […] SE N P 1 stability wa s analyzed by using We s t e r n blot aga inst SE NP 1 antibody.
# (D) Quantification of no n‐denatured SENP1 frac ti on sh own in C. (E) Quantification of th e levels of pSTAT3 as shown in Fi g u e 3C. […]
structure (smiles),measurement,value
C[C@H]1[C@H](C)CC[C@]2(C(=O)NCC(=O)N(C)CCO)CC[C@]3(C)C(=CC[C@@H]4[C@@]5(C)CC[C@H](O)C(C)(C)[C@@H]5CC[C@]43C)[C@H]12 [UAMMC9],IC50,388 nM
